Assay results: paper PMC4457840, “Differential Inhibition of Signal Peptide Peptidase Family Members by Established γ-Secretase Inhibitors” (PLoS ONE, 2015)
“Also recorded” adds a separate entry of the source. Read-outs that look alike come from different tables or passages of the source. Numbered stars: 1 amine (or outer) side, 2 acyl side, 3 side chain; on linkers, the order of the positions; unused ones are H or OH. Square brackets hold non-standard residues; d marks the D form. Peptide text beside a SMILES is read from it. * marks the point of attachment. X1 = CC(N[*:1])C(=O)C(F)(F)C(=O)[*:2]; Boc = CC(C)(C)OC(=O)*

Legend:
SPP = tested on: SPP; parameters: method as in PMID 15252014, PMID 19337374, PMID 12621027; conditions: cited from earlier work
hSPP = biological target: T1, hSPP (Homo sapiens, UniProt Q8TCT9); assay: FBA/hSPP co-transfected HEK 293T cell cleavage assay (Aβ ELISA, Western blot, IP/MS); type: cell-based; conditions: for inhibition of xAβ1-25/K16A secretion (in words) / inhibition at 25 µM: 25 μM, ELISA; for inhibition of FBA cleavage by Western blot: Fig 3C lower panel; for IC50: HEK cells, 24 h, xAβ1-25/K16A by Aβ ELISA, mean ± standard error, read-out: IC50 on FBA/SPPL co-transfected cells; for inhibition at 25 µM: DMSO = 100%, read-out: inhibition of the SPP/SPPLs; for rank order of inhibition: number in parenthesis in Table 3
T1 construct: expressed in transfected cells; host or cells: HEK 293T
T1 sequence (Q8TCT9 1-377): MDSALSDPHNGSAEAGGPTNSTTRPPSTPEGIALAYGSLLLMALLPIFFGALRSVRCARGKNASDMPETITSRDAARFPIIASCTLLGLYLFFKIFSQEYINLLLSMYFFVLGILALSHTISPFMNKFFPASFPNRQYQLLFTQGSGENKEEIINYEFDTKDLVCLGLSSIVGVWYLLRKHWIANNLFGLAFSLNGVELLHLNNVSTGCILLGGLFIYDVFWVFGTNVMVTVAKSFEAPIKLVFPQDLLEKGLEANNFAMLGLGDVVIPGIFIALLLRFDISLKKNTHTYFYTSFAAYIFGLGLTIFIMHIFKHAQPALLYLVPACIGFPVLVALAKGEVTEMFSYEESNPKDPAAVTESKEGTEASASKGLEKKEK
Source text: (§1) Expression constructs in pcDNA6 for COOH-terminal FLAG (DYKDDDDK) and strep (WSHPQFEK) tagged SPPL2a, SPPL2b, hSPP and pSPP were generated as previously described. Untagged versions of all enzymes were also made and ligated into the pAG3 vector. Substrates (Fig 1) were designed as follows: FLAG-BRI2_1-81- Aβ1-25/K16A (FBA). The K16A mutation was incorporated to prevent potential α-secretase cleavage that would preclude ELISA based detection of the released COOH-terminal fragment. The substrate DNA was cloned into the expression vector pcDNA6. Constructs were confirmed by DNA sequencing. The overexpression of substrates was performed by transiently transfecting human embryonic kidney (HEK 293T) cells with or without SPP/SPPL vectors. Cells were grown in DMEM media supplemented with Hyclone 10% fetal bovine serum (GE, Logan, Utah, USA) and 1% penicillin/streptomycin (Life Technologies, Grand Island, NY, USA). Briefly, 2.7 μg DNA was applied to a 75% confluent 6 well plate (Corning, Tewksbury, MA, USA) using the polycation polyethylenimine (PEI) transfection method. Inhibitor testing experiments were conducted in 48 well plates with appropriately adjusted amounts of DNA and PEI and incubated 12–16 hours, after which the growth medium was replaced with fresh medium. DMSO (Sigma, St. Louis, MO, USA) and GSIs were added at the appropriate concentration. The GSIs, L685,458 and Compound W were purchased from Tocris (Tocris, Bristol, UK). (Z-LL)2 ketone, Compound E, DAPT, GSI II were purchased from Calbiochem (Merck Millipore, Billerica, MA, USA). LY-411,575 was synthesized by A. Fauq at the Mayo Clinic Chemical Core. Twenty-four hours later, the medium was collected for assay by ELISA and MS. A20 cells (TIB-208) (ATCC, Manassas, VA, USA) were cultured in RPMI-1640 medium (ATCC) supplied with 10% fetal bovine serum, 1% penicillin/streptomycin and 0.05 mM 2-mercaptoethanol (Life Technologies). At the density of 5x10^5 cells/ml, A20 cells were spun down at 1000 g for 2 min and resuspended in fresh medium supplied with DMSO or GSIs and incubated for 16 hr.
(§2) Sandwich ELISAs used for Aβ detection were performed as previously described. Briefly, Aβ and Aβ adducts with substrate TMD in conditioned media was captured with Ab5 antibody (human Aβ1–16 specific) and detected with horseradish peroxidase mAb 4G8 (Covance, Princeton, NJ, USA). Synthetic Aβ1–40 was used as standard. All ELISAs were developed with TMB substrate (KPL, Gaithersburg, Maryland, USA). Bis-Tris precast gels (Biorad, Hercules, CA, USA) were used for all SDS-PAGE. Monoclonal anti-FLAG M2 antibody (Sigma) and Aβ1–16 antibody 6E10 (Covance) were used for Western blotting. Antisera against SPPL2a, SPPL2b, hSPP and pSPP were generated as previously described and were used at dilution of 1:1000 for Western blotting. Anti-CD74 In-1 antibody (BD Bioscience, San Jose, CA, USA) was used for A20 cell lysate Western blotting at dilution of 1:1000.
(§3) Immunoprecipitation and mass spectrometry of xAβ1–25 in conditioned media were performed as previously described. In this study, 10 ml conditioned media were used for each experiment. ICDs were immunoprecipitated with anti-FLAG M2 magnetic beads. Cells from 10 cm dished treated with DMSO or 20 μM LY-411,575 were used for each test.

pSPP = pSPP (Plasmodium falciparum, UniProt Q8IKQ9); assay: FBA/pSPP co-transfected HEK 293T cell cleavage assay (Aβ ELISA, Western blot, IP/MS); type: cell-based, human; conditions: for inhibition at 25 µM: read-out: inhibition of the SPP/SPPLs; for rank order of inhibition: number in parenthesis in Table 3
Chain of pSPP (Q8IKQ9 entry or part of it): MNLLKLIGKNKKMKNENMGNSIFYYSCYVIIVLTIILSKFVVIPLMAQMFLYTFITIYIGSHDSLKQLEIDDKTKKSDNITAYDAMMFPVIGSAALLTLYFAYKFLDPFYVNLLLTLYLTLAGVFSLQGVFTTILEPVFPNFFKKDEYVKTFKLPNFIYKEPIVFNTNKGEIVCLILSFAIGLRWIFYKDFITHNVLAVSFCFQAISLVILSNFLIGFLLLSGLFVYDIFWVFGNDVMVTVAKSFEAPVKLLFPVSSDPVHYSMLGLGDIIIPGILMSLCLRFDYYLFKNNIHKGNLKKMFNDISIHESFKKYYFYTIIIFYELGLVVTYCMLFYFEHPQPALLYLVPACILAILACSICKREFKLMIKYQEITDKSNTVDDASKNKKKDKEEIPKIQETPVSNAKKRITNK
Source text: as §1, §2, §3

SPPL2a = tested on: T2, SPPL2a; assay: Endogenous CD74 NTF P8 turnover in non-overexpressing A20 cells (Western blot, In-1 antibody); type: cell-based, mouse; conditions: for stabilization of the CD74 8 kDa NTF P8: 25 μM, 16 hr; for dose response of P8 fragment stabilization (in words): different doses; for lowest concentration inhibiting P8 turnover: dose response
T2 construct: endogenous SPPL2a cleavage of CD74 in a murine B-Cell line; host or cells: A20 mouse B lymphocyte cells
Method: as §1, with “Untagged” for “Expression constructs in pcDNA6 for COOH-terminal FLAG (DYKDDDDK) and strep (WSHPQFEK) tagged SPPL2a, SPPL2b, hSPP and pSPP were generated as previously described. Untagged”
as §2

Structure (SMILES) | inhibition of SPP activity (SPP) | inhibition of xAβ1-25/K16A secretion (in words) (hSPP) | inhibition of xAβ1-25/K16A secretion (in words) (pSPP; pSPP, 25 μM, ELISA) | stabilization of the CD74 8 kDa NTF P8 (SPPL2a) | inhibition of FBA cleavage by Western blot (hSPP) | IC50 (hSPP) [nM] | inhibition at 25 µM (hSPP; HEK-293T) [%] | rank order of inhibition (hSPP) | IC50 (pSPP) [nM] | rank order of inhibition (pSPP; pSPP) | dose response of P8 fragment stabilization (in words) (SPPL2a) | lowest concentration inhibiting P8 turnover (SPPL2a) [nM] | further results
C[C@H](NC(=O)Cc1cc(F)cc(F)c1)C(=O)NC(C(=O)OC(C)(C)C)c1ccccc1 (some centres unmarked) [DAPT] | selectively inhibit PSENs, but not SPPs | does not inhibit | does not inhibit | no inhibition |  |  |  |  |  |  |  |  | 
C[C@H](NC(=O)Cc1cc(F)cc(F)c1)C(=O)N[C@H]1N=C(c2ccccc2)c2ccccc2N(C)C1=O [Compound E] |  | inhibited; also recorded: selectively inhibit hSPP cleavage | did not show inhibition | did not show significant effects | efficiently inhibited | 1470 ± 93 |  |  |  |  |  |  | inhibition of xAβ1-25/K16A secretion (in words) (hSPP; listed as Comp E): selectively inhibit hSPP
C[C@H](NC(=O)[C@@H](O)c1cc(F)cc(F)c1)C(=O)N[C@@H]1C(=O)N(C)c2ccccc2-c2ccccc21 [LY-411,575] | inhibit the activity of SPP | largely inhibited | largely inhibited | greatly stabilized | efficiently inhibited | 150 ± 106 | > 90 | 1 | 3480 ± 90 | 4 | stabilized the P8 fragment in a dose dependent manner | 40 | cleavage products in conditioned media by IP/MS (hSPP; 20 μM): No major cleavage product was detected; inhibition at 25 µM (pSPP; HEK-293T): > 90%; cleavage products in conditioned media by IP/MS (pSPP; pSPP, 20 μM): No major cleavage product was detected
CC(C)C[C@H](NC(=O)OCc1ccccc1)C(=O)N[C@@H](CC(C)C)C(=O)NCC(=O)CNC(=O)[C@H](CC(C)C)NC(=O)[C@H](CC(C)C)NC(=O)OCc1ccccc1 [(Z-LL)2 ketone] |  | largely inhibited | largely inhibited | greatly stabilized | efficiently inhibited | 519 ± 97 | > 90 | 4 | 472 ± 114 | 3 | stabilized the P8 fragment in a dose dependent manner | 40 | FBA cleavage by co-transfected SPPL (in words) (hSPP; 10 μM, Aβ ELISA, Fig 1D): largely inhibited; generation of the SPP/SPPL dependent 10 kDa ICD (hSPP; 10 μM, Western blot anti-FLAG M2): significantly reduced; inhibition at 10 µM (hSPP; HEK-293T, 10 μM, overnight, Aβ ELISA): > 75%; inhibition at 10 µM (pSPP; HEK-293T, pSPP, 10 μM, overnight, Aβ ELISA): > 75%; inhibition at 25 µM (pSPP; HEK-293T, pSPP, 25 μM, ELISA, DMSO = 100%): > 90%; FBA cleavage by co-transfected SPPL (in words) (pSPP; pSPP, 10 μM, Aβ ELISA, Fig 1D): largely inhibited; generation of the SPP/SPPL dependent 10 kDa ICD (pSPP; pSPP, 10 μM, Western blot anti-FLAG M2): significantly reduced
CC[C@H](C)[C@H](NC(=O)[C@@H](NC(=O)OC(C)(C)C)C(C)C)C(=O)NC(C)C(=O)C(F)(F)C(=O)N[C@H](C(=O)N[C@H](C(=O)OC)[C@@H](C)CC)C(C)C (some centres unmarked) [GSI II] (Boc-VI[X1]VI-OMe) |  | efficiently inhibited; also recorded: largely inhibited | efficiently inhibited; also recorded: largely inhibited | greatly stabilized | efficiently inhibited | 423 ± 92 |  | 3 | 427 ± 100 | 2 | stabilized the P8 fragment in a dose dependent manner | 40 | 
